A short description of one series: in vitro. The following applies: Caco-2.
A short description of series [1]: Bidirectional permeability across Caco-2 cell monolayers (no excipients). The following applies: human; for recovery: Caco-2, no excipients, cassette, mean ± SD, n = 3. A general note: Caco-2 monolayers are a common model of the intestinal barrier.
Another series can be described thus: in vivo. The following applies: Sprague-Dawley, rat, pH 6.8, Effective permeability coefficient (Peff), rat jejunum, mean ± SEM, n = 4.
Series [2] is described as follows: Recirculating in situ rat intestinal perfusion (jejunum) in presence and absence of excipients. The settings on record: Sprague-Dawley, pH 6.8, Effective permeability coefficient (Peff), mean ± SEM, n = 4.
Description: (§1) Sprague–Dawley rats (300–350 g) were used to perform closed-loop, in situ intestinal perfusion. Rats were fasted for 12–18 h before the experiment, and water was supplied ad libitum.
(§2) Four rats (n = 4) were used per treatment group, with a total of 17 groups: one control group (assay buffer, no excipients) and three or four treatment groups for each of the five excipients, with a different concentration for each group.
(§3) Rats were anesthetized with an intraperitoneal injection of ketamine/xylazine (1 ml/kg) and placed on a heating pad to maintain normal body temperature. After making a midline incision, the intestines were externalized. A 10-cm segment of the jejunum was tied off, cannulated at both ends to form a loop, and flushed with saline and air. The loop was equilibrated statically with dosing solution for 30 min, then flushed with air and perfused by recirculation (peristaltic pump) with 10 ml dosing solution at 0.2 ml/min. Samples of the perfusate were taken from the reservoir at 15, 30, 45, 60, 75, and 90 min for analysis by LC-MS/MS.
Series [3] is described as follows: Unidirectional (A→B) permeability across Caco-2 cell monolayers in presence and absence of excipients. The following applies: human, Caco-2, Apparent permeability coefficient (Papp), mean ± SEM, n = 4.

Structures are written as SMILES.

Description for in vitro: Samples were collected from the donor and receiver chambers at multiple time points and analyzed by LC-MS/MS.
Bidirectional permeability was measured in the absence of excipients only (n = 3 replicates), whereas unidirectional permeability was measured both in the presence and absence of excipients (n = 4 replicates).
Description for in vivo: as §1, §2, §3

Broadly, the Papp A→B is the apparent permeability from the apical to the basolateral side of a cell layer. Consider `Nc1nc2c(ncn2COCCO)c(=O)[nH]1` [Acyclovir, acyclovir], for which the Papp A→B in the series “in vitro” stood at 29.8 ± 1.8 ×10⁻⁶ cm/s. Also, the recovery in series [1] (Caco-2, A→B Recovery) stood at 82.2 ± 8.6%; in series [1] (Caco-2, B→A Recovery) it was 94.9 ± 12.2%.

The Papp is a coefficient for how fast a substance crosses the barrier. `Cc1cc(=O)n(-c2ccccc2)n1C` [Antipyrine, antipyrine]: the apparent permeability (Papp) at 90 min is 143 ± 17 ×10⁻⁶ cm/s in “in vivo” (Control (no excipient)); 168 ± 35 ×10⁻⁶ cm/s in “in vivo” (HPMC 0.06 mg/ml); 117 ± 22 ×10⁻⁶ cm/s in the series “in vivo” (PEG 400 0.06 mg/ml); 82 ± 15 ×10⁻⁶ cm/s in the series “in vivo” (PEG 400 0.30 mg/ml (first run)); 153 ± 18 ×10⁻⁶ cm/s in the series “in vivo” (PEG 400 0.30 mg/ml, second run); 90 ± 26 ×10⁻⁶ cm/s in “in vivo” (PEG 400 […]). Also, the Papp at 90 min in “in vivo” (Povidone 0.06 mg/ml) turned out to be 133 ± 42 ×10⁻⁶ cm/s; in “in vivo” (SLS 0.01 mg/ml), 175 ± 23 ×10⁻⁶ cm/s; in the series “in vivo” (SLS 0.02 mg/ml) it was 93 ± 26 ×10⁻⁶ cm/s; in “in vivo” (SLS 0.04 mg/ml), 108 ± 18 ×10⁻⁶ cm/s; in “in vivo” (SLS […]) it was 157 ± 46 ×10⁻⁶ cm/s.

What is called Papp B→A is how fast a substance crosses the layer from the basolateral side. Regarding `CC(C)(C)NCC(O)COc1cccc2c1CC(O)C(O)C2` (stereo not shown) [Nadolol, nadolol], the apparent permeability from apical to basolateral (Papp A→B) was 33 ± 0.7 ×10⁻⁶ cm/s in the series “in vitro”; 0.29 ± 0.16 ×10⁻⁶ cm/s in series [1] (Caco-2); 0.21 ± 0.06 ×10⁻⁶ cm/s in series [3] (Control a (no excipient)); 0.21 ± 0.04 ×10⁻⁶ cm/s in series [3] (Control b (no excipient)); 0.14 ± 0.05 ×10⁻⁶ cm/s in series [3] (D-Lactose 1.0 mg/ml (control set b)); 0.13 ± 0.01 ×10⁻⁶ cm/s in series [3] (D-Lactose 2.0 mg/ml (control set b)). Moreover, the apical-to-basolateral permeability (Papp A→B) in series [3] (HPMC 0.06 mg/ml (control set a)) is 0.14 ± 0.05 ×10⁻⁶ cm/s; in series [3] (HPMC 1.0 mg/ml (control set b)), 0.13 ± 0.05 ×10⁻⁶ cm/s; in series [3] (HPMC 2.0 mg/ml (control set b)), 0.11 ± 0.02 ×10⁻⁶ cm/s; in series [3] (PEG 400 0.06 mg/ml (control set a)), 0.13 ± 0.01 ×10⁻⁶ cm/s; in series [3] (PEG 400 […] (control set a)) it was 0.14 ± 0.04 ×10⁻⁶ cm/s; in series [3] (PEG 400 […] (control set b)), 0.27 ± 0.04 ×10⁻⁶ cm/s. Moreover, the Papp A→B in series [3] (Povidone 0.06 mg/ml (control set a)) was 0.09 ± 0.02 ×10⁻⁶ cm/s; in series [3] (Povidone 0.2 mg/ml (control set b)), 0.15 ± 0.05 ×10⁻⁶ cm/s; in series [3] (SLS 0.01 mg/ml (control set a)), 0.23 ± 0.07 ×10⁻⁶ cm/s; in series [3] (SLS 0.02 mg/ml (control set a)) it was 0.31 ± 0.05 ×10⁻⁶ cm/s; in series [3] (SLS 0.04 mg/ml (control set a)), 0.31 ± 0.1 ×10⁻⁶ cm/s. In series [1] (Caco-2), this compound registered an apparent permeability from basolateral to apical (Papp B→A) of 0.71 ± 0.15 ×10⁻⁶ cm/s. Moreover, the recovery in series [1] (Caco-2, A→B Recovery) was determined as 83.9 ± 9.1%; in series [1] (Caco-2, B→A Recovery), 90.7 ± 12.2%. Besides, the Papp at 90 min in series [2] (other: closed-loop recirculating in situ jejunal perfusion, HPMC 0.06 mg/ml) amounted to 40 ± 7 ×10⁻⁶ cm/s; in series [2] (other: closed-loop recirculating in situ jejunal perfusion, HPMC […]) it was 7 ± 17 ×10⁻⁶ cm/s; in series [2] (other: closed-loop recirculating in situ jejunal perfusion, PEG 400 0.06 mg/ml), 24 ± 8 ×10⁻⁶ cm/s; in series [2] (other: closed-loop recirculating in situ jejunal perfusion, PEG 400 0.30 mg/ml (first run)), 1 ± 1 ×10⁻⁶ cm/s; in series [2] (other: closed-loop recirculating in situ jejunal perfusion, PEG 400 […]) it was 25 ± 8 ×10⁻⁶ cm/s; in series [2] (other: closed-loop recirculating in situ jejunal perfusion, SLS 0.01 mg/ml), 32 ± 15 ×10⁻⁶ cm/s. Further, the apparent permeability coefficient (Papp) at 90 min came out at 37 ± 10 ×10⁻⁶ cm/s in series [2] (other: closed-loop recirculating in situ jejunal perfusion, SLS 0.02 mg/ml); 1 ± 2 ×10⁻⁶ cm/s in series [2] (other: closed-loop recirculating in situ jejunal perfusion, SLS 0.04 mg/ml); 13 ± 1.5 ×10⁻⁶ cm/s in series [2] (Povidone […]).

The record behind these values is PMC4689772, “The Effect of Excipients on the Permeability of BCS Class III Compounds and Implications for Biowaivers” (Pharmaceutical Research, 2015).
